Reference: ChEMBL document CHEMBL2016536, “New triazole derivatives as antifungal agents: synthesis via click reaction, in vitro evaluation and molecular docking studies” (2012)
Converted amounts (≈) assume the structure as drawn.

Tests used:
Format in all cases: functional
Aspergillus fumigatus = experiment: Antifungal activity against Aspergillus fumigatus by microbroth dilution method
Candida parapsilosis = experiment: Antifungal activity against Candida parapsilosis by microbroth dilution method; conditions: Lodderomyces parapsilosis
Candida albicans [1] = experiment: Antifungal activity against Candida albicans SC5314 after 24 hrs by microbroth dilution method; conditions: SC5314, 24 h
Candida tropicalis = experiment: Antifungal activity against Candida tropicalis by microbroth dilution method
Kluyveromyces marxianus = experiment: Antifungal activity against Candida kefyr by microbroth dilution method
Candida albicans [2] = experiment: Antifungal activity against Candida albicans Y0109 after 24 hrs by microbroth dilution method; conditions: Y0109, 24 h
Trichophyton rubrum = experiment: Antifungal activity against Trichophyton rubrum by microbroth dilution method
Cryptococcus neoformans = experiment: Antifungal activity against Cryptococcus neoformans after 72 hrs by microbroth dilution method

Structure (SMILES)	MIC80 (Aspergillus fumigatus) [µg/mL]	MIC80 (Candida parapsilosis) [µg/mL]	MIC80 (Candida albicans [1]) [µg/mL]	MIC80 (Candida tropicalis) [µg/mL]	MIC80 (Kluyveromyces marxianus) [µg/mL]	MIC80 (Candida albicans [2]) [µg/mL]	MIC80 (Trichophyton rubrum) [µg/mL]	MIC80 (Cryptococcus neoformans) [µg/mL]
OC(Cc1cn(Cc2ccccc2)nn1)(Cn1cncn1)c1ccc(F)cc1F (stereo not given)	16 (≈ 40.4 µM)	0.0625 (≈ 0.158 µM)	0.125 (≈ 0.315 µM)	0.0625 (≈ 0.158 µM)	< 0.125	0.0625 (≈ 0.158 µM)	0.25 (≈ 0.631 µM)	< 0.25
O=[N+]([O-])c1cccc(Cn2cc(CC(O)(Cn3cncn3)c3ccc(F)cc3F)nn2)c1 (stereo not given)	32 (≈ 72.5 µM)	< 0.25	< 0.125	0.125 (≈ 0.283 µM)	0.0625 (≈ 0.142 µM)	0.0625 (≈ 0.142 µM)	0.25 (≈ 0.566 µM)	0.5 (≈ 1.13 µM)
OC(Cc1cn(Cc2ccccc2F)nn1)(Cn1cncn1)c1ccc(F)cc1F (stereo not given)	16 (≈ 38.6 µM)	0.125 (≈ 0.302 µM)	0.0625 (≈ 0.151 µM)	0.0625 (≈ 0.151 µM)	0.0625 (≈ 0.151 µM)	0.0625 (≈ 0.151 µM)	0.125 (≈ 0.302 µM)	0.125 (≈ 0.302 µM)
OC(Cn1cncn1)(Cn1cncn1)c1ccc(F)cc1F [FLUCONAZOLE]	64 (≈ 209 µM)	0.5 (≈ 1.63 µM)	0.5 (≈ 1.63 µM)	1 (≈ 3.27 µM)	4 (≈ 13.1 µM)	0.5 (≈ 1.63 µM)	1 (≈ 3.27 µM)	1 (≈ 3.27 µM)
OC(Cc1cn(Cc2ccc(Cl)c(Cl)c2)nn1)(Cn1cncn1)c1ccc(F)cc1F (stereo not given)	32 (≈ 68.8 µM)	0.125 (≈ 0.269 µM)	0.25 (≈ 0.537 µM)	0.125 (≈ 0.269 µM)	0.25 (≈ 0.537 µM)	0.125 (≈ 0.269 µM)	0.25 (≈ 0.537 µM)	1 (≈ 2.15 µM)
CCC(C)n1ncn(-c2ccc(N3CCN(c4ccc(OCC5COC(Cn6cncn6)(c6ccc(Cl)cc6Cl)O5)cc4)CC3)cc2)c1=O (stereo not given) [ITRACONAZOLE]	0.0625 (≈ 0.0886 µM)	0.0625 (≈ 0.0886 µM)	0.0625 (≈ 0.0886 µM)	0.0625 (≈ 0.0886 µM)	0.125 (≈ 0.177 µM)	0.0625 (≈ 0.0886 µM)	0.0625 (≈ 0.0886 µM)	0.0625 (≈ 0.0886 µM)
OC(Cc1cn(Cc2cc(Cl)cc(Cl)c2)nn1)(Cn1cncn1)c1ccc(F)cc1F (stereo not given)	32 (≈ 68.8 µM)	0.25 (≈ 0.537 µM)	0.25 (≈ 0.537 µM)	0.25 (≈ 0.537 µM)	0.5 (≈ 1.07 µM)	0.125 (≈ 0.269 µM)	< 0.125	1 (≈ 2.15 µM)
C[C@@H]1[C@H](O)[C@@H](C)/C=C/C=C/C=C/C=C/C=C/C=C/C=C/[C@H](O[C@@H]2O[C@H](C)[C@@H](O)[C@H](N)[C@@H]2O)C[C@@H]2O[C@](O)(C[C@@H](O)C[C@@H](O)[C@H](O)CC[C@@H](O)C[C@@H](O)CC(=O)O[C@H]1C)C[C@H](O)[C@H]2C(=O)O [AMPHOTERICIN B]	1 (≈ 1.08 µM)	0.25 (≈ 0.271 µM)	0.25 (≈ 0.271 µM)	1 (≈ 1.08 µM)	0.25 (≈ 0.271 µM)	0.25 (≈ 0.271 µM)	4 (≈ 4.33 µM)	1 (≈ 1.08 µM)
OC(Cc1cn(Cc2ccc(Cl)cc2)nn1)(Cn1cncn1)c1ccc(F)cc1F (stereo not given)	4 (≈ 9.28 µM)	0.125 (≈ 0.29 µM)	< 0.125	0.5 (≈ 1.16 µM)	0.0625 (≈ 0.145 µM)	0.0625 (≈ 0.145 µM)	0.125 (≈ 0.29 µM)	0.25 (≈ 0.58 µM)
C[C@@H](c1ncncc1F)[C@](O)(Cn1cncn1)c1ccc(F)cc1F [VORICONAZOLE]	0.0156 (≈ 0.0447 µM)	0.0039 (≈ 0.0112 µM)	0.0625 (≈ 0.179 µM)	0.0039 (≈ 0.0112 µM)	0.0625 (≈ 0.179 µM)	0.0625 (≈ 0.179 µM)	0.0156 (≈ 0.0447 µM)	0.0039 (≈ 0.0112 µM)
N#Cc1ccc(Cn2cc(CC(O)(Cn3cncn3)c3ccc(F)cc3F)nn2)cc1 (stereo not given)	32 (≈ 75.9 µM)	0.25 (≈ 0.593 µM)	0.125 (≈ 0.297 µM)	0.125 (≈ 0.297 µM)	< 0.125	0.0625 (≈ 0.148 µM)	0.25 (≈ 0.593 µM)	0.5 (≈ 1.19 µM)
OC(Cc1cn(Cc2ccccc2Br)nn1)(Cn1cncn1)c1ccc(F)cc1F (stereo not given)	4 (≈ 8.42 µM)	0.0625 (≈ 0.131 µM)	0.0625 (≈ 0.131 µM)	0.0625 (≈ 0.131 µM)	0.0625 (≈ 0.131 µM)	0.0625 (≈ 0.131 µM)	0.25 (≈ 0.526 µM)	0.25 (≈ 0.526 µM)
O=[N+]([O-])c1ccc(Cn2cc(CC(O)(Cn3cncn3)c3ccc(F)cc3F)nn2)cc1 (stereo not given)	16 (≈ 36.2 µM)	0.25 (≈ 0.566 µM)	< 0.125	0.125 (≈ 0.283 µM)	0.0625 (≈ 0.142 µM)	0.0625 (≈ 0.142 µM)	0.25 (≈ 0.566 µM)	0.5 (≈ 1.13 µM)
OC(Cc1cn(Cc2ccc(F)cc2)nn1)(Cn1cncn1)c1ccc(F)cc1F (stereo not given)	32 (≈ 77.2 µM)	0.125 (≈ 0.302 µM)	< 0.125	0.25 (≈ 0.603 µM)	0.0625 (≈ 0.151 µM)	0.0625 (≈ 0.151 µM)	0.125 (≈ 0.302 µM)	0.25 (≈ 0.603 µM)
OC(Cc1cn(Cc2ccc(Br)cc2)nn1)(Cn1cncn1)c1ccc(F)cc1F (stereo not given)	8 (≈ 16.8 µM)	0.125 (≈ 0.263 µM)	0.0625 (≈ 0.131 µM)	0.25 (≈ 0.526 µM)	0.0625 (≈ 0.131 µM)	0.0625 (≈ 0.131 µM)	0.125 (≈ 0.263 µM)	0.25 (≈ 0.526 µM)
